According to US11526981B2, “Ecotoxicity evaluation analyzing device including microalgae image analysis program installed therein, and method thereof” (KOREA INSTITUTE OF OCEAN SCIENCE & TECHNOLOGY, priority 2017, dated 2022):

Test system: dunaliella tertiolecta
Assay: growth inhibition test (72 h) using microalgae, ecotoxicity evaluation
Type: cell-based
Conditions: 20° C.
Protocol: The used microalgae 1 is dunaliella tertiolecta, and when exposed to stress (toxicity), transforms the state from the original form 51 into a cyst form 61 and loses mobility.
Acetone was used as a toxic substance. In a test method using an exponential formula, the temperature was maintained at 20° C., and the Irradiation was continuously performed using a white fluorescent lamp with an illuminance of 6,000 to 7,000 lx.
Three replicated plots were inoculated with an initial concentration of 20,000 cells/mL, and the shaking speed was set to 100 r/min. Non-toxic filtered seawater containing nutrient medium was used as a dilution water, and growth inhibition was analyzed for 72 hours.
The experimental conditions in examples of the ecotoxicity evaluation analysis device 100 installed with the microalgae image analysis program therein according to the present invention and the analysis method using the same are shown in Table 2.
Referring to FIG. 5, in an example of the microalgae analysis method using the ecotoxicity evaluation analysis device 100 installed with the microalgae image analysis program therein according to the present invention, the performance of the technology of the present invention was verified using representative SR chamber and hemocytometer of the microalgae analysis method as controls. Here, the concentration of the microalgae 1 contained in the sample was analyzed every 24 hours. Cells were dyed in the two controls, whereas measurements were performed without dyeing the cells in the present technology. In the controls, a microscope (200×) was used, and a microalgae 1 counting was performed manually by an experienced expert.
Referring to FIG. 6, a growth inhibition test using microalgae 1 is performed to obtain a 50% effective concentration (EC50) of a toxic substance. The 50% effective concentration is treated as an important data base for various toxicity analysis. […]

## CC(C)=O [acetone]
Counting by SR chamber (manual, microscope, dyed cells)
  50% effective concentration (EC50): 25.6 mL/L
Counting by developed analyzer (present invention technology, CMOS shadow image, no dyeing)
  50% effective concentration (EC50): 24.2 mL/L
Counting by hemocytometer (manual, microscope, dyed cells)
  50% effective concentration (EC50): 24.9 mL/L
